Legend:
[1] = tested on: diabetic mice (STZ model); assay: Sub-epidermal neural plexus density in papillary dermis of STZ diabetic mice; type: in vivo, mouse; conditions: cream from hyperglycemia for 16 weeks
Method: To examine SNP, normo-glycemic or diabetic mice (STZ model) were treated with either vehicle cream of cream containing XIB4035 from the moment they became hyperglycemic, for 16 weeks. At the end of this treatment period, the density of sub-epidermal fibers in papillary dermis was measured in papillary dermis. It was thereby identified that sub-epidermal neural plexus (SNP) density was reduced in diabetic mice not administered XIB, but was preserved in diabetic mice that had received XIB4035 treatment (FIG. 10).
Adult female C57 Bl/6J mice were made diabetic (blood glucose >15 mmol/L) by injection of STZ (90 mg/kg i.p.) on two consecutive days, with confirmation of hyperglycemia made 7 days after STZ delivery. Paw thermal response latency of the right paw was measured every two weeks from weeks 8-16 of diabetes using a modified Hargeaves test, as described

[2] = target: T1, ErbB2/ErbB3 (Rattus norvegicus, UniProt P06494+Q62799); assay: NRG1-dependent activation of ErbB2/ErbB3 in L6 muscle cells; type: cell-based
T1 construct: endogenous in cells; host or cells: L6 muscle cells

[3] = tested on: wild type mice; assay: Hot plate thermal nociception test in wild type mice; type: in vivo, mouse; conditions: cream 1.5 mM, 51° C. hotplate, P28-P42
Method: Thermal nociceptive responses in wild type mice treated with either control or XIB4035 (1.5 mM) containing cream were compared using the hotplate test (51° C.) beginning at four weeks of age (p28) and continued to six weeks of age (P42).
As a first test, a cream containing XIB4035 (1.5 mM) was applied directly to the hind paws of GFAP-DN-erbB4 and wild type mice twice daily for a period of 4 weeks starting prior to symptom onset (P21). Mice of both genotypes were also treated with the base cream containing no drug for control. Mice were tested for responses to a noxious thermal stimulus prior to the initiation of treatment and every 7 days for the duration of the experiment.
Transgenic mouse lines used were as previously described (Lacomis et al., Muscle Nerve 26, 173-188 (2002); Comblath et al., Current opinion in Neurology 19, 446-450 (2006)). Animals were kept in the animal facility with free access to food and water. Behavioral experiments were performed in a quiet environment at the same time of day. The hot plate test was performed using a “controlled hot-plate analgesia meter” (Columbus Instruments) heated to 54° C. Paw withdrawal latency was measured as the time required for the mouse to visibly respond to the thermal stimulus, e.g. licking paws, shaking paws, or jumping off of the plate. […]

[4] = tested on: GFRα/RET receptor signaling; assay: Tyrosine hydroxylase promoter luciferase reporter assay in SH-SY5Y-THpGL3 cells; type: cell-based, human; conditions: for effect in the TH-luciferase assay: XIB4035 alone
Source text: One goal of these studies was to determine if XIB4035 could be used for treating SFN in humans. Using the Neuro2A (N2A) murine neuroblastoma cell line, Tokugawa et al. (supra) reported XIB4035 as a competitive agonist for the GDNF receptor GFRα1 that activates the RET receptor. Since populations of DRG sensory neurons express different GFRα receptors, thus making them preferentially responsive to the particular ligands, it was important to determine if XIB4035 was specific to GFRα1 or could act on other family members. Since PSPN has no effect on peripheral sensory neurons, the GFRα1, GFRα2, and GFRα3 receptors were the focus of these studies. The SH-SY5Y, a human neuroblastoma cell line expressing mRNA for GFRα1, GFRα2, and GFRα3, was used to perform two cell-based assays; immunoblots measuring RET phosphorylation and a luciferase reporter assay using the tyrosine hydroxylase (TH) promoter. For the latter two paradigms were used, either overnight treatment immediately followed by luciferase activity measurements or 10 minute treatments followed by washout and overnight incubation prior to measurements. GDNF and ARTN induced robust TH-luciferase activity in a dose dependent manner (FIG. 3E). Because the responses to GDNF and ARTN were more robust, these two factors were chosen for further analysis.
The tyrosine hydroxylase promoter was cloned into the pGL3 basic vector (Promega, Madison, Wis., USA) at the Mlu I and Hind III sites, as previously described (Zwick, supra) (TH-pGL3). Briefly, a 2 Kb promoter region upstream from the transcription initiation site of the rat TH gene was cloned from genomic DNA using the primer sequences, […] and […]. SH-SY5Y cells were co-transfected with the TH-pGL3 and the pBabe-puromycin expression vectors at a molar ratio of 10:1. Cells were selected for stable puromycin resistance at a final concentration of 0.5 μg/ml of puromycin-dihydrochloride. Stable colonies were selected and tested for TH-directed luciferase response to GDNF family ligand stimulation. One stable clone, SH-SY5Y-THpGL3, with good signal-to-noise ratio was selected for use in the experiments.
SH-SY5Y-THpGL3 cells were maintained in DMEM/F12, 5% FBS, and 1% penicillin/streptomycin and plated on collagen coated plates (4 μg/ml). Neuro-2A cells were grown in MEM, 5% FBS, and 1% penicillin/streptomycin. BE(2)-C cells were grown in DMEM/F12 media containing 5% FBS and 1% penicillin/streptomycin. PC-12 cells were maintained in media containing RPMI-1640, 10% horse serum, 5% FBS, and 1% penicillin/streptomycin on collagen coated plates. For luciferase assays, cells were treated for either 10 minutes with washout or overnight with various molecules and assayed for firefly luciferase 16-24 hours post-treatment using the luciferase assay system (Promega, Madison, Wis., USA).

T1 sequence (P06494 23-1257): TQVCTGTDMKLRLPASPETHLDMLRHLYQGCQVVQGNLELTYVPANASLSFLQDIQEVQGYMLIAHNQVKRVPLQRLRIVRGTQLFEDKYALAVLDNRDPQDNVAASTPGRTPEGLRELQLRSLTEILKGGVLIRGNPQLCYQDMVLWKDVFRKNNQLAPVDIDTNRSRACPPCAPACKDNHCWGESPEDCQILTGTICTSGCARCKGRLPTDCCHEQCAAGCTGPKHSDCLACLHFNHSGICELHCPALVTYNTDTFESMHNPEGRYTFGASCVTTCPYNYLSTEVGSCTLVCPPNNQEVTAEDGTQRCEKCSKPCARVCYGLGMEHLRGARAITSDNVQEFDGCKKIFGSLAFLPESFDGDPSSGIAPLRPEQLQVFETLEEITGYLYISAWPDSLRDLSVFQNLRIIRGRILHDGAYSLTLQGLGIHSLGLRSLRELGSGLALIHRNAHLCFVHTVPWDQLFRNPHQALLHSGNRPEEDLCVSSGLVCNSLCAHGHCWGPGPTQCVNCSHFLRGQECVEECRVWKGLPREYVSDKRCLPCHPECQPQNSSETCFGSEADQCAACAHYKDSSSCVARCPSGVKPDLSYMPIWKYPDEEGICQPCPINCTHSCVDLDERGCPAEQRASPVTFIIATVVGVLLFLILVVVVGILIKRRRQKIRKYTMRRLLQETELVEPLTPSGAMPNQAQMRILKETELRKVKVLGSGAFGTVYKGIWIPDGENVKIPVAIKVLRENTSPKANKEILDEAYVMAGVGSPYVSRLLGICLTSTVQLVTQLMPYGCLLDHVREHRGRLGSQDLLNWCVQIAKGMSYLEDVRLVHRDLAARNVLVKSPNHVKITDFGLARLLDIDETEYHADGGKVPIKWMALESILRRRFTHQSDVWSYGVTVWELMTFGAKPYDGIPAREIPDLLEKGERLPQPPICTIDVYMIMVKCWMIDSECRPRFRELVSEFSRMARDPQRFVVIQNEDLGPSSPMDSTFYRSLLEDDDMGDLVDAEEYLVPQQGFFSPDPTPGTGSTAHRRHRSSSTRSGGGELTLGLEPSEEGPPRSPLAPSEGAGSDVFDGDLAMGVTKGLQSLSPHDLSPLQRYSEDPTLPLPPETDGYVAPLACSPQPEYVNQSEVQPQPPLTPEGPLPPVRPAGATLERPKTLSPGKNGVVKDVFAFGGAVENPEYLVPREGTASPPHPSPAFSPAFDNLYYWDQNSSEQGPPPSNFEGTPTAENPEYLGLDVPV
T1 sequence (Q62799 20-1339): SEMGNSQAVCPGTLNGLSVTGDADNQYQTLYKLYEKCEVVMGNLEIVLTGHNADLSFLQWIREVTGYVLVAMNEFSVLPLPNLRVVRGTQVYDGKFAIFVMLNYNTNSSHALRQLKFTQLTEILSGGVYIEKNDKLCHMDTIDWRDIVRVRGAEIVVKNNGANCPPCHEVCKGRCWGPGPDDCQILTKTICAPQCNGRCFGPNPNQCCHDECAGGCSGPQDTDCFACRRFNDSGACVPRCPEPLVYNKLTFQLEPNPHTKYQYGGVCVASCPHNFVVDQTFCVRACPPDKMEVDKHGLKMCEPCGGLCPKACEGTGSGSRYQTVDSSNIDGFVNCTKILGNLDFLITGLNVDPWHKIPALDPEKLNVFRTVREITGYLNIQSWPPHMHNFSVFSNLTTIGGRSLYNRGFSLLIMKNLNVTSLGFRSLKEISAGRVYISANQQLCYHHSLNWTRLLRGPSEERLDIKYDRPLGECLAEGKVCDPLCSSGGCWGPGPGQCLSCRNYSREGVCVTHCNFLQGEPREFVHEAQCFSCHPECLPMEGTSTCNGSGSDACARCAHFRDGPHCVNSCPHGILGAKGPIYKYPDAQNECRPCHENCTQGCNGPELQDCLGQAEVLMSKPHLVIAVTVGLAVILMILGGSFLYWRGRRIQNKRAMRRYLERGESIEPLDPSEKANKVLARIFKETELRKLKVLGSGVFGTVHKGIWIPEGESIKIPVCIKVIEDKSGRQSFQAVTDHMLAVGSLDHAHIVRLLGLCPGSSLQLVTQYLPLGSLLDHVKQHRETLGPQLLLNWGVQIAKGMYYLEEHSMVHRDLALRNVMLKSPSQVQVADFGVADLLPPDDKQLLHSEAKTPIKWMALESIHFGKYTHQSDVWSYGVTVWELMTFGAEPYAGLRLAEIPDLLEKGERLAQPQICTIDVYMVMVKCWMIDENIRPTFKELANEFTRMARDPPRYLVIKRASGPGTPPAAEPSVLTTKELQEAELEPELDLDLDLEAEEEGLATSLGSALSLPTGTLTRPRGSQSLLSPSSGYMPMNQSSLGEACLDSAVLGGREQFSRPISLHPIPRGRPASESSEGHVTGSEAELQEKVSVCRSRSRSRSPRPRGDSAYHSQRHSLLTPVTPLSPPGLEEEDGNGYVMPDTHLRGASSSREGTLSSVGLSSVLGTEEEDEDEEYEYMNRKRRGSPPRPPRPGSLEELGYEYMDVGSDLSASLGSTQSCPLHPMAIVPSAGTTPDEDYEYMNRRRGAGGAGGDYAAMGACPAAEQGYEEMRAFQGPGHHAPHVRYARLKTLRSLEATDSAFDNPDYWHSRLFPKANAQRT

CCN(CC)CCCC(C)Nc1cc(/C=C/c2ccccc2Cl)nc2cc(Cl)ccc12 (stereo not shown) [XIB4035, N4-{7-chloro-2-[(E)-2-(2-chloro-phenyl)-vinyl]-quinolin-4-yl}-N1,N1-diethyl-pentane-1,4-diamine]
sub-epidermal neural plexus (SNP) density [1]: preserved
NRG1-dependent activation of ErbB2/ErbB3 [2]: did not influence
thermal hyperalgesia [3]: did not induce thermal hyperalgesia
maximal effect, luciferase activity ([4]; 18 nM ARTN + 20 μM XIB4035): 3.61±0.47 fold over control
maximal effect, luciferase activity ([4]; 18 nM GDNF + 20 μM XIB4035): 3.41±0.41 fold over control
minimal ARTN dose necessary to induce luciferase activity above control ([4]; ARTN + 20 μM XIB4035, 10 minutes, washout, overnight): 2.7 pM
minimal GDNF dose necessary to induce luciferase activity above control ([4]; GDNF + 20 μM XIB4035, 10 minutes, washout, overnight): 2.7 pM
effect in the TH-luciferase assay ([4]; 10 minute treatment, 1-15 μM, washout, overnight incubation): no effect
effect in the TH-luciferase assay ([4]; overnight treatment, 6.25-500 nM): no effect
effect on ligand-induced TH-luciferase activity ([4]; co-treatment with either GDNF or ARTN over a range of doses): significantly potentiates

— patent US20160045487A1, “COMPOSITIONS AND METHODS FOR TREATING NEUROPATHY” (CHILDEREN'S MEDICAL CENTER CORPORATION, priority 2013, published 2016)
